A short description of the data set: Screening of salts of the compound with counter ion acids. The conditions noted are these: for Results (salt screening): acetone 0.2 mL, solid-liquid reaction, room temperature; for Results (salt screening) / Post-treatment (salt screening): base:acid=1:1.2; for Experimental results (salt screening): natural evaporation at room temperature; for Post-treatment (salt screening): suspended in 0.2 mL of methanol at 50° C. The format is physicochemical. As to the method: 300 mg of free base was weighed, 15 mL of THE was added, and the mixture was heated to 50° C. to dissolve completely. The solution of the free base in THE was divided into […], and a certain amount of acid was added to each part (molar reaction ratio of base:acid=1:1.2), detailed as follows:
20 mg of free base was weighed, 0.2 mL of acetone was added, and the mixture was stirred and suspended at room temperature. Acid (molar reaction ratio of base:acid=1:1.2) was added to the suspension system for reaction, detailed as follows: […]
20 mg of free base was weighed, 0.2 mL of methanol was added, and the mixture was stirred and suspended at 50° C. Acid (molar reaction ratio of base:acid=1:1.2) was added to the suspension system for reaction, detailed as follows:
THF was used as solvent in No. 1 to 10, and the free base was dissolved in THE to form a clear solution and then acid was added. Ethanol was used as solvent in No. 11 to 14, the free base was suspended in ethanol, and a clear solution formed after adding an acid. The clear solution formed in No. 1-14 was placed at room temperature without sealing the container to evaporate the solvent.

Where [1] appears, read: acid: 1M oxalic acid in ethanol.
Where [2] appears, read: acid: 1M phosphoric acid in ethanol.

On to `C[C@H](Nc1ccc2c(c1)OCCn1cc(N3C(=O)SC[C@H]3C(F)F)nc1-2)C(N)=O` [Example 22, (S)-2-((2-((R)-4-(difluoromethyl)-2-oxothiazolidin-3-yl)-5,6-dihydrobenzo[f]imidazo[1,2-d][1,4]oxazepin-9-yl)amino)propionamide], for which the “Results (salt screening)” value is recorded as “No reaction, free base remained” (acid: 1M maleic acid in ethanol); “Mesylate was obtained” (acid: 1M methanesulfonic acid in ethanol); “No reaction, free base remained” under setting [1]; “No reaction, free base remained” under setting [2]. The “Experimental results (salt screening)” value runs as follows: (THF as solvent, acid: Adipic acid) “Oil formed”; (THF as solvent, acid: Citric acid) “Oil formed”; (THF as solvent, acid: Fumaric acid) “Oil formed”; (THF as solvent, acid: Glycolic acid) “Oil formed”; (THF as solvent, acid: Maleic acid) “Oil formed”; (THF as solvent, acid: Malic acid) “Oil formed”. For the same molecule, the “Experimental results (salt screening)” value is listed as “Oil formed” (THF as solvent, acid: Oxalic acid); “Oil formed” (THF as solvent, acid: Phosphoric acid); “Oil formed” (THF as solvent, acid: Succinic acid); “Oil formed” (THF as solvent, acid: Tartaric acid); “Amorphous” (ethanol as solvent, acid: Benzenesulfonic acid); “Amorphous” (ethanol as solvent, acid: Hydrochloric acid). Also, the “Experimental results (salt screening)” value by setting is: (ethanol as solvent, acid: Isethionic acid) “Amorphous”; (ethanol as solvent, acid: p-Toluenesulfonic acid) “Amorphous”. The “Post-treatment (salt screening)” value reads like this: (acid: 1M maleic acid in methanol) “No reaction, free base remained”; under setting [1], “No reaction, free base remained”; under setting [2], “No reaction, free base remained”.

The values above are taken from patent US12624050B2, “Three fused ring derivative-containing salt or crystal form and pharmaceutical composition thereof” (Shanghai Hansoh Biomedical Co., Ltd., priority 2019, dated 2026).
